Values joined by “and” are separate entries in the source; they are usually repeats but may differ in a detail not shown here. Equal entries are not always repeated.
What was measured:
Format in all cases: cell-based
[1] = test system: E. coli MG1655 containing pRS18; test: on-chip step-induction of arsenic-sensing plasmid pRS18 (GFP); settings: pRS18 in E. coli MG1655, M9 + 0.4% glucose
Text: Induction of pRS18, an arsenic-sensing plasmid, was first tested in the microfluidic device. A recombinant strain of E. coli MG1655 containing pRS18 was vacuum loaded into the microfluidic device, grown to confluence, and step-induced with sodium ortho-arsenite (Na3AsO3) in M9 minimal medium supplemented with 0.4% glucose. Images were collected using a Nikon Ti microscope with 4× objective magnification. Step induction was executed using the gravity-driven “Dial-AWave” automated flow control system to mix two medium sources in a defined ratio. The cells were sequentially exposed to arsenic concentrations of 0 μM, 0.1 μM, 0.5 μM, and 1 μM in 6-h windows, allowing time for the cells to respond to each concentration increase. […] We believe that the rise in GFP expression prior to the induction step is due to a small leak of inducer into the medium stream. Average fluorescence within the trapping regions of the images as well as arsenic concentration is plotted over time in FIG. 47C.

[2] = test system: E. coli MG1655/Cr11; test: 8-strain chip induction (fluorescence induction ratio); settings: toxin at t=0, pure water at t=2 hours; chromium(VI) 0.5 μM
Text: (§1) An overview of the sensor can be seen in FIG. 39. In order to acquire the large amount of data required to successfully train the classifier, five replicates of the fully self-contained device prototype were built, in which the microfluidic devices are mounted and imaged using custom-designed optics as shown in some embodiments herein (Milestone 6.9). The majority of the data for this project was acquired using a novel microfluidic device capable of housing eight different bacterial strains that receive media from a shared source. […] The design was expanded to house 18 strains and we have begun taking data with this new chip to provide larger datasets to the classifier. A detailed CAD drawing of this device can be seen in FIG. 56. The 18 cell trapping regions are vacuum-loaded from 18 downstream fluidic ports. Long, serpentine channels upstream of the trapping regions serve as fluidic buffer zones to prevent the cross-contamination of strains while loading. The toxin concentration is controlled dynamically by a peristaltic pump that mixes a water/toxin combination (representing the source water stream) with a concentrated medium stock.
(§2) In each panel, the time series data for the “on-target” responding strain is plotted in bold.

[3] = test system: E. coli MG1655/Co7; test: as above; settings: toxin at t=0, pure water at t=2 hours; chromium(VI) 0.5 μM
Text: as §1, §2

Row | Structure (SMILES) | arsenic concentration detected on-chip (GFP) [1] | GFP response of strain Cr11 [2] | GFP response of strain Co7 [3]
1 | [As] [Arsenic] | 0.1 µM and 0.13 µM |  | 
2 | [Cr+6] [Chromium(VI)] |  | responding | responding

Source: patent publication US20220057378A1, “MICROBIAL MICROFLUIDIC BIOSENSOR” (priority 2015, published 2022)
